According to US9149038B2, “4-amino-6-(heterocyclic)picolinates and 6-amino-2-(heterocyclic)pyrimidine-4-carboxylates and their use as herbicides” (Dow AgroSciences LLC, priority 2013, dated 2015):
Where two headings read alike, the source gives them in different places.

System: Direct Seeded Rice and weed species
Assay: Postemergence herbicidal activity in direct seeded rice, visual rating after 20-22 days and probit GR20/GR50/GR80/GR90 (Table 14)
Format: in vivo
Conditions: for pest or weed control at 17.5 g/ha / pest or weed control at 35 g/ha / pest or weed control at 70 g/ha: post-emergence, 504 h, postemergence; for pest or weed control at 17.5 g/ha: 17.5 g ai/ha; for pest or weed control at 35 g/ha: 35 g ai/ha; for pest or weed control at 70 g/ha: 70 g ai/ha
Summary of the method: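 Visual injury scores (0 = none, 100 = complete kill) taken 20-22 days after treatment and fitted by probit analysis over several doses to give GR20/GR50/GR80/GR90. Plants at 2nd–3rd true leaf in pH about 8.1 loam–sand mix received track-sprayer applications of 187 L/ha containing 1.25% (v/v) crop oil concentrate.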

[1] = BRAPP (broadleaf signalgrass, Brachiaria platyphylla), read-out: Visual Growth Reduction (%) 21 Days After Application BRAPP
[2] = CYPDI (small-flower flatsedge, Cyperus difformis), read-out: Visual Growth Reduction (%) 21 Days After Application CYPDI
[3] = CYPES (yellow nutsedge, Cyperus esculentus), read-out: Visual Growth Reduction (%) 21 Days After Application CYPES
[4] = CYPIR (rice flatsedge, Cyperus iria), read-out: Visual Growth Reduction (%) 21 Days After Application CYPIR
[5] = DIGSA (large crabgrass, Digitaria sanguinalis), read-out: Visual Growth Reduction (%) 21 Days After Application DIGSA
[6] = ECHCG (barnyardgrass, Echinochloa crus-galli), read-out: Visual Growth Reduction (%) 21 Days After Application ECHCG
[7] = ECHCO (junglerice, Echinochloa colonum), read-out: Visual Growth Reduction (%) 21 Days After Application ECHCO
[8] = LEFCH (Chinese sprangletop, Leptochloa chinensis), read-out: Visual Growth Reduction (%) 21 Days After Application LEFCH
[9] = ORYSJ (Oryza sativa, rice crop), read-out: Visual Growth Reduction (%) 21 Days After Application ORYSJ
[10] = ORYSK (Oryza sativa, rice crop), read-out: Visual Growth Reduction (%) 21 Days After Application ORYSK
[11] = SCPJU (Japanese bulrush, Schoenoplectus juncoides Roxb.), read-out: Visual Growth Reduction (%) 21 Days After Application SCPJU
[12] = SEBEX (hemp sesbania, Sesbania exaltata), read-out: Visual Growth Reduction (%) 21 Days After Application SEBEX

## Nc1cc(-c2ccc3c(c2F)OC(F)(F)O3)nc(C(=O)O)c1Cl [Compound 41]
BRAPP (Brachiaria platyphylla), probit analysis, dose for 50 percent growth reduction
  GR50 BRAPP: 0.3 g ai/ha
BRAPP (Brachiaria platyphylla), probit analysis, dose for 80 percent growth reduction
  GR80 BRAPP: 2 g ai/ha
BRAPP (Brachiaria platyphylla), probit analysis, dose for 90 percent growth reduction
  GR90 BRAPP: 6 g ai/ha
CYPDI (Cyperus difformis), probit analysis, dose for 50 percent growth reduction
  GR50 CYPDI: 4 g ai/ha
CYPDI (Cyperus difformis), probit analysis, dose for 80 percent growth reduction
  GR80 CYPDI: 6 g ai/ha
CYPDI (Cyperus difformis), probit analysis, dose for 90 percent growth reduction
  GR90 CYPDI: 7 g ai/ha
CYPES (Cyperus esculentus), probit analysis, dose for 50 percent growth reduction
  GR50 CYPES: 0.0001 g ai/ha
CYPES (Cyperus esculentus), probit analysis, dose for 80 percent growth reduction
  GR80 CYPES: 0.0001 g ai/ha
CYPES (Cyperus esculentus), probit analysis, dose for 90 percent growth reduction
  GR90 CYPES: 0.0001 g ai/ha
CYPIR (Cyperus iria), probit analysis, dose for 50 percent growth reduction
  GR50 CYPIR: 0.0001 g ai/ha
CYPIR (Cyperus iria), probit analysis, dose for 80 percent growth reduction
  GR80 CYPIR: 0.0001 g ai/ha
CYPIR (Cyperus iria), probit analysis, dose for 90 percent growth reduction
  GR90 CYPIR: 0.0001 g ai/ha
DIGSA (Digitaria sanguinalis), probit analysis, dose for 50 percent growth reduction
  GR50 DIGSA: 0.001 g ai/ha
DIGSA (Digitaria sanguinalis), probit analysis, dose for 80 percent growth reduction
  GR80 DIGSA: 0.131 g ai/ha
DIGSA (Digitaria sanguinalis), probit analysis, dose for 90 percent growth reduction
  GR90 DIGSA: 2 g ai/ha
ECHCG (Echinochloa crus-galli), probit analysis, dose for 50 percent growth reduction
  GR50 ECHCG: 0.0018 g ai/ha
ECHCG (Echinochloa crus-galli), probit analysis, dose for 80 percent growth reduction
  GR80 ECHCG: 0.0018 g ai/ha
ECHCG (Echinochloa crus-galli), probit analysis, dose for 90 percent growth reduction
  GR90 ECHCG: 0.0018 g ai/ha
ECHCO (Echinochloa colonum), probit analysis, dose for 50 percent growth reduction
  GR50 ECHCO: 0.0003 g ai/ha
ECHCO (Echinochloa colonum), probit analysis, dose for 80 percent growth reduction
  GR80 ECHCO: 0.0415 g ai/ha
ECHCO (Echinochloa colonum), probit analysis, dose for 90 percent growth reduction
  GR90 ECHCO: 1 g ai/ha
LEFCH (Leptochloa chinensis), probit analysis, dose for 50 percent growth reduction
  GR50 LEFCH: 6 g ai/ha
LEFCH (Leptochloa chinensis), probit analysis, dose for 80 percent growth reduction
  GR80 LEFCH: 13 g ai/ha
LEFCH (Leptochloa chinensis), probit analysis, dose for 90 percent growth reduction
  GR90 LEFCH: 20 g ai/ha
ORYSJ (Oryza sativa, rice crop), probit analysis, dose for 20 percent growth reduction
  GR20 ORYSJ: 1 g ai/ha
ORYSK (Oryza sativa, rice crop), probit analysis, dose for 20 percent growth reduction
  GR20 ORYSK: 2 g ai/ha
SCPJU (Schoenoplectus juncoides Roxb.), probit analysis, dose for 50 percent growth reduction
  GR50 SCPJU: 0.0001 g ai/ha
SCPJU (Schoenoplectus juncoides Roxb.), probit analysis, dose for 80 percent growth reduction
  GR80 SCPJU: 0.0001 g ai/ha
SCPJU (Schoenoplectus juncoides Roxb.), probit analysis, dose for 90 percent growth reduction
  GR90 SCPJU: 0.0001 g ai/ha
SEBEX (Sesbania exaltata), probit analysis, dose for 50 percent growth reduction
  GR50 SEBEX: 4 g ai/ha
SEBEX (Sesbania exaltata), probit analysis, dose for 80 percent growth reduction
  GR80 SEBEX: 9 g ai/ha
SEBEX (Sesbania exaltata), probit analysis, dose for 90 percent growth reduction
  GR90 SEBEX: 13 g ai/ha
[1]
  pest or weed control at 17.5 g/ha: 95 to 100%
  pest or weed control at 35 g/ha: 95 to 100%
  pest or weed control at 70 g/ha: 95 to 100%
[2]
  pest or weed control at 17.5 g/ha: 95 to 100%
  pest or weed control at 35 g/ha: 95 to 100%
  pest or weed control at 70 g/ha: 95 to 100%
[3]
  pest or weed control at 17.5 g/ha: 95 to 100%
  pest or weed control at 35 g/ha: 95 to 100%
  pest or weed control at 70 g/ha: 95 to 100%
[4]
  pest or weed control at 17.5 g/ha: 95 to 100%
  pest or weed control at 35 g/ha: 95 to 100%
  pest or weed control at 70 g/ha: 95 to 100%
[5]
  pest or weed control at 17.5 g/ha: 95 to 100%
  pest or weed control at 35 g/ha: 95 to 100%
  pest or weed control at 70 g/ha: 95 to 100%
[6]
  pest or weed control at 17.5 g/ha: 85 to 94%
  pest or weed control at 35 g/ha: 95 to 100%
  pest or weed control at 70 g/ha: 95 to 100%
[7]
  pest or weed control at 17.5 g/ha: 95 to 100%
  pest or weed control at 35 g/ha: 95 to 100%
  pest or weed control at 70 g/ha: 95 to 100%
[8]
  pest or weed control at 17.5 g/ha: 85 to 94%
  pest or weed control at 35 g/ha: 95 to 100%
  pest or weed control at 70 g/ha: 95 to 100%
[9]
  pest or weed control at 17.5 g/ha: 85 to 94%
  pest or weed control at 35 g/ha: 95 to 100%
  pest or weed control at 70 g/ha: 95 to 100%
[10]
  pest or weed control at 17.5 g/ha: 60 to 74%
  pest or weed control at 35 g/ha: 75 to 84%
  pest or weed control at 70 g/ha: 85 to 94%
[11]
  pest or weed control at 17.5 g/ha: 95 to 100%
  pest or weed control at 35 g/ha: 95 to 100%
  pest or weed control at 70 g/ha: 95 to 100%
[12]
  pest or weed control at 17.5 g/ha: 95 to 100%
  pest or weed control at 35 g/ha: 95 to 100%
  pest or weed control at 70 g/ha: 95 to 100%
